According to the supplement of paper PMC10307832:

What was measured:
Assay in all cases: relative viability (nuclei count vs DMSO), 5 days (fraction); higher = more cells survive
Ponatinib + Alpelisib = compound: Cc1ccc(C(=O)Nc2ccc(CN3CCN(C)CC3)c(C(F)(F)F)c2)cc1C#Cc1cnc2cccnn12 [Ponatinib] + Cc1nc(NC(=O)N2CCC[C@H]2C(N)=O)sc1-c1ccnc(C(C)(C)C(F)(F)F)c1 [Alpelisib] (partner 2 µM)
Summary of the method: (§1)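 Each reported value is a median over duplicate plates. It expresses relative viability: treated-well nuclei count divided by vehicle-well nuclei count. Lung cancer cell lines in 1536-well plates were dosed by pin tool a day after seeding, alone with one drug or with a fixed anchor-drug dose plus five library-drug doses (not always all listed) in √10 steps, and nuclei were counted after 5 days.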

Pazopanib + Palbociclib = compound: Cc1ccc(Nc2nccc(N(C)c3ccc4c(C)n(C)nc4c3)n2)cc1S(N)(=O)=O [Pazopanib] + CC(=O)c1c(C)c2cnc(Nc3ccc(N4CCNCC4)cn3)nc2n(C2CCCC2)c1=O [Palbociclib] (partner 0.5 µM)
Summary of the method: as §1

Pazopanib + Bortezomib = compound: Cc1ccc(Nc2nccc(N(C)c3ccc4c(C)n(C)nc4c3)n2)cc1S(N)(=O)=O [Pazopanib] + CC(C)C[C@H](NC(=O)[C@H](Cc1ccccc1)NC(=O)c1cnccn1)B(O)O [Bortezomib] (partner 0.002 µM)
Summary of the method: as §1

Pazopanib + AZD7762 = compound: Cc1ccc(Nc2nccc(N(C)c3ccc4c(C)n(C)nc4c3)n2)cc1S(N)(=O)=O [Pazopanib] + NC(=O)Nc1cc(-c2cccc(F)c2)sc1C(=O)N[C@H]1CCCNC1 [AZD7762] (partner 0.2 µM)
Summary of the method: as §1

| Cell Line | relative viability (Ponatinib + Alpelisib; first compound 0.002 µM) | relative viability (Ponatinib + Alpelisib; first compound 0.006325 µM) | relative viability (Ponatinib + Alpelisib; first compound 0.06325 µM) | relative viability (Ponatinib + Alpelisib; first compound 0.2 µM) | relative viability (Pazopanib + Palbociclib; first compound 0.01 µM) | relative viability (Pazopanib + Palbociclib; first compound 0.03162 µM) | relative viability (Pazopanib + Palbociclib; first compound 0.1 µM) | relative viability (Pazopanib + Palbociclib; first compound 0.3162 µM) | relative viability (Pazopanib + Palbociclib; first compound 1 µM) | relative viability (Pazopanib + Bortezomib; first compound 0.01 µM) | relative viability (Pazopanib + Bortezomib; first compound 0.03162 µM) | relative viability (Pazopanib + Bortezomib; first compound 0.1 µM) | relative viability (Pazopanib + Bortezomib; first compound 0.3162 µM) | relative viability (Pazopanib + Bortezomib; first compound 1 µM) | relative viability (Pazopanib + AZD7762; first compound 0.01 µM) | relative viability (Pazopanib + AZD7762; first compound 0.03162 µM) | relative viability (Pazopanib + AZD7762; first compound 0.1 µM) | relative viability (Pazopanib + AZD7762; first compound 0.3162 µM) | relative viability (Pazopanib + AZD7762; first compound 1 µM) |
| --- | --- | --- | --- | --- | --- | --- | --- | --- | --- | --- | --- | --- | --- | --- | --- | --- | --- | --- | --- |
| NCI-H2126 | 0.779 | 0.769 | 0.851 | 0.852 | 0.337 | 0.322 | 0.354 | 0.361 | 0.361 | 1.05 | 1.14 | 1.11 | 1.07 | 1.09 | 0.963 | 0.947 | 1.07 | 0.959 | 1.04 |
| LXF-289 | 1.05 | 1.02 | 1.04 | 1.08 | 0.591 | 0.581 | 0.629 | 0.571 | 0.598 | 0.998 | 1.02 | 0.993 | 0.91 | 0.956 | 1.26 | 1.15 | 1.12 | 1.11 | 1.06 |
| NCI-H3122 | 0.883 | 0.86 | 0.863 | 0.909 | 0.194 | 0.175 | 0.217 | 0.189 | 0.241 | 1.04 | 0.985 | 0.917 | 1.02 | 1.1 | 0.962 | 0.952 | 1.1 | 0.95 | 0.987 |
| NCI-H1755 | 0.905 | 0.96 | 0.957 | 0.854 | 0.423 | 0.454 | 0.47 | 0.457 | 0.467 | 0.883 | 0.973 | 0.966 | 0.928 | 1.04 | 0.434 | 0.433 | 0.453 | 0.42 | 0.439 |
| HCC-78 | 0.321 | 0.301 | 0.408 | 0.323 | 0.465 | 0.511 | 0.4 | 0.462 | 0.432 | 0.408 | 0.453 | 0.498 | 0.414 | 0.619 | – | 0.654 | 0.615 | 0.658 | 0.604 |
| LOU-NH91 | 0.703 | 0.792 | 0.822 | 0.713 | 0.511 | 0.502 | 0.564 | 0.538 | 0.547 | 0.484 | 0.481 | 0.496 | 0.475 | 0.506 | 0.653 | 0.758 | 0.78 | 0.836 | 0.815 |
| NCI-H322M | 0.77 | 0.694 | 0.866 | 0.827 | 0.495 | 0.522 | 0.478 | 0.482 | 0.55 | 1.09 | 1.34 | 1.35 | 1.32 | 1.21 | 0.559 | 0.539 | 0.617 | 0.617 | 0.669 |
| HCC-827 | 1.01 | 0.987 | 1.01 | 1.01 | 0.558 | 0.456 | 0.516 | 0.444 | 0.471 | 0.963 | 1.06 | 1.06 | 1.05 | 1.03 | 0.244 | 0.201 | 0.217 | 0.231 | 0.213 |
| NCI-H1975 | 0.618 | 0.773 | 0.92 | 0.675 | 0.531 | 0.552 | 0.608 | 0.601 | 0.557 | 0.356 | 0.346 | 0.461 | 0.464 | 0.448 | 0.612 | 0.667 | 0.637 | 0.76 | 0.692 |
| NCI-H1651 | 0.867 | 1.06 | 1.07 | 0.991 | 0.51 | 0.555 | 0.523 | 0.489 | 0.555 | 0.753 | 0.954 | 0.965 | 0.97 | 0.916 | 0.438 | 0.451 | 0.484 | 0.437 | 0.435 |
| NCI-H460 | 0.515 | 0.548 | 0.683 | 0.662 | 0.212 | 0.287 | 0.122 | 0.0783 | 0.262 | 1.03 | 1.23 | 1.2 | 1.14 | 1.13 | 0.766 | 0.619 | 0.551 | 0.637 | 0.597 |
| LCLC-103H | 0.89 | 0.969 | 1.07 | 1.03 | 0.409 | 0.517 | 0.495 | 0.439 | 0.5 | 0.942 | 0.869 | 1.11 | 1.04 | 1.24 | 0.576 | 0.805 | 0.897 | 0.792 | 0.822 |
| LCLC-97TM1 | – | 0.227 | – | 0.314 | – | 0.202 | 0.212 | 0.205 | 0.264 | 0.506 | 0.693 | 0.482 | 0.737 | 0.592 | – | 0.241 | 0.248 | 0.303 | 0.188 |
| NCI-H838 | 1.01 | 0.982 | 1.13 | 0.812 | 0.181 | 0.216 | 0.243 | 0.258 | 0.246 | 0.898 | 0.883 | 0.927 | 0.87 | 1.2 | 1.04 | 0.911 | 1.04 | 0.909 | 0.946 |
| NCI-H1355 | 0.832 | 0.87 | 1.01 | 0.917 | 0.33 | 0.4 | 0.426 | 0.407 | 0.45 | – | 1.17 | 1.21 | 1.21 | 1.35 | 0.71 | 0.802 | 0.827 | 0.727 | 0.719 |
| HOP-62 | 0.782 | 0.871 | 0.652 | 0.718 | 0.436 | 0.472 | 0.424 | 0.493 | 0.46 | 0.642 | 0.724 | – | 0.935 | 0.923 | 0.739 | 0.589 | 0.527 | 0.528 | 0.478 |
| NCI-H2085 | 0.881 | 1.01 | 1.07 | 0.959 | 0.483 | 0.462 | 0.487 | 0.48 | 0.462 | 1.04 | 1.09 | 1.01 | 1.02 | 1.13 | 0.98 | 0.988 | 0.928 | 0.952 | 1.06 |
